The record followed here is patent publication US20070185161A1, “Bicyclic substituted indole-derivative steroid hormone nuclear receptor modulators” (priority 2004, published 2007).

The structures appear in SMILES notation. A value given as a limit tells only on which side of the number the result lay.

In this assay the target is T1, human MR (Homo sapiens, UniProt P08235).
T1 construct: The full length human MR gene is cloned from a human kidney or human brain cDNA library; made in house; host or cells: SF9 insect cells (baculovirus)
T1 sequence (P08235 1-984): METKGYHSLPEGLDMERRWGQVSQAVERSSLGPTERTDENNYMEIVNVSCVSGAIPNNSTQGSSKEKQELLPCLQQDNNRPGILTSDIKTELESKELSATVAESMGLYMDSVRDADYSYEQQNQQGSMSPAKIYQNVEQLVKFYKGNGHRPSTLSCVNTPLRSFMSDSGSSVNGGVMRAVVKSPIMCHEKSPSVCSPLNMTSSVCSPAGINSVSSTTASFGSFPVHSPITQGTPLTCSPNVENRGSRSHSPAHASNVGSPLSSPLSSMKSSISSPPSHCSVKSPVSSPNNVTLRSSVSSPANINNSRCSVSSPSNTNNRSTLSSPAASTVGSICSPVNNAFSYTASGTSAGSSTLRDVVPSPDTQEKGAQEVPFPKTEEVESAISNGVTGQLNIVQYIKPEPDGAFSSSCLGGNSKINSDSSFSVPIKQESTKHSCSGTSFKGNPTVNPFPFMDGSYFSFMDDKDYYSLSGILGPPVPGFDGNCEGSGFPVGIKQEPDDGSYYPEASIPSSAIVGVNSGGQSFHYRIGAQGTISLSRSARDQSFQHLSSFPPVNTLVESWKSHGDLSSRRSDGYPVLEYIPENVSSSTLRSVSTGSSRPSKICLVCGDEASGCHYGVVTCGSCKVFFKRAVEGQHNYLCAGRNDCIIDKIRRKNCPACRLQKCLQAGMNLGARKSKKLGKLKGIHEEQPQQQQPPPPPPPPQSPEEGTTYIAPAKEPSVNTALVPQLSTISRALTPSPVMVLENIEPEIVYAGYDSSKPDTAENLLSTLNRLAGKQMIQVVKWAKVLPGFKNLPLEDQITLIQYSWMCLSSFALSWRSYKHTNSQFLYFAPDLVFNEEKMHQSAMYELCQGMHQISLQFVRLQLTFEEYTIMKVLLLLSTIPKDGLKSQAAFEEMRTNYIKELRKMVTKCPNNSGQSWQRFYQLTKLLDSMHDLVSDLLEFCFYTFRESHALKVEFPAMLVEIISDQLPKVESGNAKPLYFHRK
Description: Mineralocorticoid Receptor Binding Assay (Method 1). Conditions: [3H]-aldosterone, racemic mixture unless otherwise indicated. On the procedure:
The full length human MR gene is cloned from a human kidney or human brain cDNA library. Briefly, using synthetic oligonucleotide primers (Eli Lilly and Company, Indianapolis) directed to nucleotides 20-54 and 3700-3666 of the human MR, polymerase chain reaction (PCR) is performed under standard conditions using a human cDNA library. The PCR reaction is performed in a final volume of 50 μl containing about 1 μl of a 50× stock solution of polymerase; about 1 μl of a 50× stock solution of dNTP; about 5 μl of an appropriate PCR buffer; about 1 μl of each primer; about 5 μl of a H. kidney or H. brain cDNA library; and about 36 μl of water. The reaction is allowed to denature for about 30 seconds at 95 degrees Celsius, anneal for about 30 seconds at 55 degrees Celsius, and extend for about 5 minutes at 72 degrees Celsius, the sequence being repeated for a total of about 35 cycles. The desired PCR product (3.68 Kb) is confirmed by gel electrophoresis and subsequently cut from the gel and stored at about −20 degrees Celsius until extraction. To extract the cDNA product from the agarose gel, the QIAEX II Gel Extraction protocol (QIAGEN, Inc.) is employed according to the manufacturer's instructions. Following extraction, the MR cDNA is cloned into an appropriate cloning vector (Zero Blunt TOPO PCR Cloning Kit (Invitrogen, Inc.) and a pAcHLT-baculovirus transfer vector (B.D./Pharminogen), then expressed in SF9 insect cells, essentially according to manufacturer's instructions. Sf9 cells are grown at a scale where gram quantity cell pellets are obtained for subsequent use in the MR binding assay. Harvested cell pellets are lysed by repeated freeze-thaw cycles (about 4) in a suitable lysis buffer then centrifuged at about 1×10^3 G (with the supernatant being saved for future assays).
MR binding assays are performed in a final total volume of about 250 μl containing about 20-25 μg of protein and 0.5 nM of [^3H]-aldosterone plus varying concentrations of test compound or vehicle. The assay binding buffer consists of 30 mM sodium molybdate, 30 mM of TRIS-HCl, 5 mM sodium phosphate, 5 mM sodium pyrophosphate, and about 10% glycerol, pH=7.5.
Briefly, assays are prepared at RT in 96-well Falcon 3072 plates, each well containing 210 μl of binding buffer, 10 μl of [^3H]-aldosterone, 10 μl of test compound/vehicle, and 20 μl of the resuspended receptor protein extract. Incubations are carried out at 4 degrees Celsius with shaking for about 16 hours. 200 μl aliquots of each incubation are filtered onto Millipore HA 0.45 micron 96-well filter plates, pre-moistened with cold 30 mM TRIS-HCl. The filter plates are suctioned dry with vacuum and immediately washed 3× with cold 30 mM TRIS-HCl. The plates are then punched out and the amount of receptor-ligand complex is determined by liquid scintillation counting using 4 ml of Ready Protein Plus™ liquid scintillation cocktail.
IC50 values (defined as the concentration of test compound required to decrease [^3H]-aldosterone binding by 50%) are then determined. Ki values for each respective test compound can then be calculated by application of the Cheng-Prusoff equation as described in Cheng et al., Relationship Between The Inhibition Constant (Ki) and The Concentration of Inhibitor Which Causes 50% Inhibition (IC50) of an Enzymatic Reaction, Biochem. Pharmacol., 22: 3099-31088; (1973).

The Ki is the dissociation constant of the complex between target and ligand, obtained from inhibition or displacement. As to `CC1(c2c[nH]c3c(NS(C)(=O)=O)cccc23)CCOc2cc(F)ccc21` (single isomer, unassigned) [Example 34A, N-[3-(7-Fluoro-4-methyl-chroman-4-yl)-1H-indol-7-yl]-methanesulfonamide], the Ki is no more than 500 nM. The result for `CC1(c2c[nH]c3c(NS(C)(=O)=O)cccc23)CCOc2cc(F)ccc21` (single isomer, unassigned) [Example 34B, N-[3-(7-Fluoro-4-methyl-chroman-4-yl)-1H-indol-7-yl]-methanesulfonamide] reads no more than 500 nM; that for `CCC1(c2c[nH]c3c(NS(C)(=O)=O)cccc23)CCOc2cc(F)ccc21` (single isomer, unassigned) [Example 35A, N-[3-(4-Ethyl-7-fluoro-chroman-4-yl)-1H-indol-7-yl]-methanesulfonamide], no more than 500 nM.

`CCC1(c2c[nH]c3c(NS(C)(=O)=O)cccc23)CCOc2cc(F)ccc21` (single isomer, unassigned) [Example 35B, N-[3-(4-Ethyl-7-fluoro-chroman-4-yl)-1H-indol-7-yl]-methanesulfonamide]: the Ki was no more than 500 nM. Regarding `CCC1(c2c[nH]c3c(NS(C)(=O)=O)cccc23)CCOc2cc(F)cc(F)c21` (single isomer, unassigned) [Example 36A, N-[3-(4-Ethyl-5,7-difluoro-chroman-4-yl)-1H-indol-7-yl]-methanesulfonamide], the inhibitory constant (Ki) is no more than 500 nM. `CCC1(c2c[nH]c3c(NS(C)(=O)=O)cccc23)CCOc2cc(F)cc(F)c21` (single isomer, unassigned) [Example 36B, N-[3-(4-Ethyl-5,7-difluoro-chroman-4-yl)-1H-indol-7-yl]-methanesulfonamide]: the Ki is no more than 500 nM.

Regarding `CS(=O)(=O)Nc1cccc2c(C3(C4CC4)CCc4cc(F)ccc43)c[nH]c12` (single isomer, unassigned) [Example 39A, N-[3-(1-Cyclopropyl-5-fluoro-indan-1-yl)-1H-indol-7-yl]-methanesulfonamide], the inhibition constant Ki is no more than 500 nM.

For `CS(=O)(=O)Nc1cccc2c(C3(C4CC4)CCc4cc(F)ccc43)c[nH]c12` (single isomer, unassigned) [Example 39B, N-[3-(1-Cyclopropyl-5-fluoro-indan-1-yl)-1H-indol-7-yl]-methanesulfonamide], the Ki was no more than 500 nM.

For the compound `CS(=O)(=O)Nc1cccc2c(C3(CCCO)CCc4cc(F)ccc43)c[nH]c12` (single isomer, unassigned) [Example 40A, N-{3-[5-Fluoro-1-(3-hydroxy-propyl)-indan-1-yl]-1H-indol-7-yl}-methanesulfonamide], the Ki is no more than 500 nM. In the case of `CS(=O)(=O)Nc1cccc2c(C3(CCCO)CCc4cc(F)ccc43)c[nH]c12` (single isomer, unassigned) [Example 40B, N-{3-[5-Fluoro-1-(3-hydroxy-propyl)-indan-1-yl]-1H-indol-7-yl}-methanesulfonamide], the Ki was no more than 500 nM. Take `CCC1(c2c[nH]c3c([N+](=O)[O-])cccc23)CCc2cc(F)ccc21` (stereo not shown) [Example 2, 3-(1-Ethyl-5-fluoro-indan-1-yl)-7-nitro-1H-indole]: the Ki was no more than 500 nM.

Consider `CCC1(c2cn(C)c3c(NS(C)(=O)=O)cccc23)CCc2cc(F)ccc21` (stereo not shown) [Example 5, N-[3-(1-Ethyl-5-fluoro-indan-1-yl)-1-methyl-1H-indol-7-yl]-methanesulfonamide], for which the Ki was no more than 500 nM. For `CCC1(c2c[nH]c3c(N)cccc23)CCc2cc(F)ccc21` (stereo not shown) [Example 14, 3-(1-Ethyl-5-fluoro-indan-1-yl)-1H-indol-7-ylamine], the Ki was no more than 500 nM. Turning to `CCC1(c2c[nH]c3c(NC(=O)OC)cccc23)CCc2cc(F)ccc21` (stereo not shown) [Example 15, [3-(1-Ethyl-5-fluoro-indan-1-yl)-1H-indol-7-yl]-carbamic acid methyl ester], the inhibition constant (Ki) is no more than 500 nM. As for `CCC1(c2c[nH]c3c(NC(C)=O)cccc23)CCc2cc(F)ccc21` (stereo not shown) [Example 16, N-[3-(1-ethyl-5-fluoro-indan-1-yl)-1H-indol-7-yl]-acetamide], the Ki is no more than 500 nM. The result for `CCC1(c2c[nH]c3c(NS(=O)(=O)N(C)C)cccc23)CCc2cc(F)ccc21` (stereo not shown) [Example 17] reads no more than 500 nM; that for `CCC1(c2c[nH]c3c(NS(=O)(=O)c4ccccc4)cccc23)CCc2cc(F)ccc21` (stereo not shown) [Example 18, N-[3-(1-ethyl-5-fluoro-indan-1-yl)-1H-indol-7-yl]-benzenesulfonamide], no more than 500 nM; that for `CCC1(c2c[nH]c3c(NS(=O)(=O)CC)cccc23)CCc2cc(F)ccc21` (stereo not shown) [Example 19, Ethanesulfonic acid [3-(1-ethyl-5-fluoro-indan-1-yl)-1H-indol-7-yl]-amide], no more than 500 nM.

In the case of `CC1(c2c[nH]c3c(NS(C)(=O)=O)cccc23)CCc2ccccc21` (stereo not shown) [Example 20, N-[3-(1-Methyl-indan-1-yl)-1H-indol-7-yl]-methanesulfonamide], the Ki was no more than 500 nM. With `CC1(c2c[nH]c3c(NS(C)(=O)=O)cccc23)CCc2cc(-n3cccn3)ccc21` (stereo not shown) [Example 24, N-[3-(1-Methyl-5-pyrazol-1-yl-indan-1-yl)-1H-indol-7-yl]-methanesulfonamide], the Ki was no more than 500 nM. Turning to `CS(=O)(=O)Nc1cccc2c(C3CCCc4ccccc43)c[nH]c12` (stereo not shown) [Example 25, N-[3-(1,2,3,4-Tetrahydro-naphthalen-1-yl)-1H-indol-7-yl]-methanesulfonamide], the Ki was no more than 500 nM. In the case of `CC1(c2c[nH]c3c(NS(C)(=O)=O)cccc23)CCCc2ccccc21` (stereo not shown) [Example 26, N-[3-(1-Methyl-1,2,3,4-tetrahydro-naphthalen-1-yl)-1H-indol-7-yl]-methanesulfonamide] it was no more than 500 nM. In the case of `CCC1(c2c[nH]c3c(NS(C)(=O)=O)cccc23)CCCc2ccccc21` (stereo not shown) [Example 27, N-[3-(1-Ethyl-1,2,3,4-tetrahydro-naphthalen-1-yl)-1H-indol-7-yl]-methanesulfonamide] it was no more than 500 nM; in that of `CC1(c2c[nH]c3c(NS(C)(=O)=O)cccc23)CCOc2ccccc21` (stereo not shown) [Example 32, N-[3-(4-Methyl-chroman-4-yl)-1H-indol-7-yl]-methanesulfonamide], no more than 500 nM; in that of `CC1(c2c[nH]c3c(NS(C)(=O)=O)cccc23)CCOc2ccc(F)cc21` (stereo not shown) [Example 33, N-[3-(6-Fluoro-4-methyl-chroman-4-yl)-1H-indol-7-yl]-methanesulfonamide], no more than 500 nM.
